Data from paper PMC12250835, “Novel 3-Methyl-1,6-Diazaphenothiazine as an Anticancer Agent—Synthesis, Structure, and In Vitro Anticancer Evaluation” (Molecules, 2025).

Experiments:
[1] = test system: C32 amelanotic melanoma cells; test: WST-1 cell viability assay, C32; type: cell-based; details: Homo sapiens, concentration range 1–100 µM
Experimental: (§1) Human A375, C32 amelanotic and COLO829, G361 melanotic melanoma cells, purchased from ATCC (ATCC Manassas, VA, USA), were incubated in a humidified 5% CO2 incubator at 37 °C. The cells were cultured in the recommended medium supplemented with inactivated fetal bovine serum and the following antibiotics: penicillin (100 U/mL), neomycin (10 μg/mL) and amphotericin B (0.25 μg/mL). Treatment with the studied compounds (B6–B10) began 24 h after seeding. The analyzed compound solutions were obtained by diluting stock solutions in a culture medium. The analysis via WST-1 assay was used for compound concentrations ranging from 1 µM to 100 µM. Other studies, concerning the assessment of intracellular GSH levels and apoptosis, were performed on the B8 and B10 derivatives at concentrations of 50 μM and 100 µM.
(§2) The viability of cells was assessed using the cell proliferation reagent WST-1. The reagent is a tetrazolium salt (slightly red) that can be reduced in viable cells to formazan dye (dark red) by mitochondrial dehydrogenases. In the analysis, WST-1 was added to cells cultured in 96-well microplates (10 µL/well) 3 h before the measurement. Absorbance at 440 nm was read using a microplate reader (Infinite 200 PRO, TECAN, Männedorf, Switzerland), and 650 nm was used as the reference wavelength. In the experiment, control samples were normalized to 100%. All the examined samples were calculated as percentages of the control.

[2] = test system: A375 amelanotic melanoma cells; test: WST-1 cell viability assay, A375; type: cell-based; details: Homo sapiens, A-375, concentration range 1–100 µM
Experimental: as §1, §2

[3] = test system: COLO829 melanotic melanoma cells; test: WST-1 cell viability assay, COLO829; type: cell-based; details: Homo sapiens, COLO-829, concentration range 1–100 µM
Experimental: as §1, §2

[4] = test system: G361 melanotic melanoma cells; test: WST-1 cell viability assay, G361; type: cell-based; details: Homo sapiens, G-361, concentration range 1–100 µM
Experimental: as §1, §2

[5] = test system: normal human fibroblasts (HDF); test: WST-1 cell viability assay, HDF; type: cell-based; details: for IC50: Homo sapiens, Fibroblast, concentration range 1–100 µM; for reduction in cell viability in comparison to the control: concentrations equal to and above 25 µM, all incubation time points
Experimental: [Worded in the source for another cell line; this cell line is reported under the same test.] as §1, §2

[6] = test system: C32 amelanotic melanoma cells; test: DNA fragmentation assay, C32; type: cell-based, human; details: 72 h
Experimental: as §1
(§3) For the DNA fragmentation assay, cells were fixed with 70% cold ethanol (24 h at 0–4 °C). In the next step of the analysis, the cell samples were washed with PBS, centrifuged, and stained with solution 3 (ChemoMetec, Lillerød, Denmark) containing DAPI and 0.1% triton X-100 in PBS. The analysis was conducted according to the DNA fragmentation assay protocol.

[7] = test system: G361 melanotic melanoma cells; test: Vitality assay, intracellular GSH level, G361; type: cell-based, human; details: 72 h
Experimental: as §1
(§4) All the experiments were performed using the fluorescence image cytometer NucleoCounter® NC-3000™ (ChemoMetec, Lillerød, Denmark). For the vitality assay, treatment cells were stained with solution 5 according to the manufacturer’s protocol and analysis was conducted using NucleoView NC-3000 software 2.1.25.12 (ChemoMetec, Lillerød, Denmark) according to the vitality assay protocol.

[8] = test system: C32 amelanotic melanoma cells; test: Vitality assay, intracellular GSH level, C32; type: cell-based, human; details: 72 h
Experimental: as §1, §4

[9] = test system: G361 melanotic melanoma cells; test: Mitochondrial potential assay (JC-1), G361; type: cell-based, human; details: 72 h
Experimental: as §1
(§5) The mitochondrial potential assay was conducted using fluorescent cationic dye JC-1, which accumulates in the mitochondria in a potential-dependent manner. After cell treatment, samples were suspended in 12.5 µL of solution 7 (JC-1) (ChemoMetec, Lillerød, Denmark) and then incubated at 37 C for 10 min. In the next step, the […] cells were centrifuged for 5 min at 400× g, washed twice with PBS and resuspended in 0.25 mL of solution 8 (DAPI) (ChemoMetec, Lillerød, Denmark). In the last step of sample preparation, cells were loaded into 8-chamber NC-Slides A8™ and analyzed immediately using the mitochondrial potential assay protocol. Scatterplots of the obtained results were used to demarcate the percentage of cells with a different mitochondrial membrane potential.

[10] = test system: C32 amelanotic melanoma cells; test: Mitochondrial potential assay (JC-1), C32; type: cell-based, human; details: 72 h
Experimental: as §1, §5

[11] = test system: G361 melanotic melanoma cells; test: DNA fragmentation assay, G361; type: cell-based, human; details: G361, 100 µM, 72 h
Experimental: as §1, §3

[12] = test system: C32 cells; design: method as in PMID 31432325; details: 50 µM, 72 h incubation; cited from earlier work
[13] = test system: COLO829 cells; design: method as in PMID 31410885; details: 50 µM, 72 h incubation; cited from earlier work

| IC50 ([1]; C32, 24 h exposure) [µM] | IC50 ([1]; C32, 48 h exposure) [µM] | IC50 ([1]; C32, 72 h exposure) [µM] | IC50 ([2]; A375, 24 h exposure) [µM] | IC50 ([2]; A375, 48 h exposure) [µM] | IC50 ([2]; A375, 72 h exposure) [µM] | IC50 ([3]; COLO829, 24 h exposure) [µM] | IC50 ([3]; COLO829, 48 h exposure) [µM] | IC50 ([3]; COLO829, 72 h exposure) [µM] | IC50 ([4]; G361, 24 h exposure) [µM] | IC50 ([4]; G361, 48 h exposure) [µM] | IC50 ([4]; G361, 72 h exposure) [µM] | Compound | IC50 ([5]; 24 h exposure) [µM] | IC50 ([5]; 48 h exposure) [µM] | IC50 ([5]; 72 h exposure) [µM] | reduction in cell viability in comparison to the control [5] [%] | cells with fragmented DNA (M1) ([6]; C32, 100 µM) [%] | cells with low GSH levels (Q1ll, GSH-depleted cells) ([7]; G361, 50 µM) [%] | cells with low GSH levels (Q1ll, GSH-depleted cells) ([7]; G361, 100 µM) [%] | cells with low GSH levels (Q1ll, GSH-depleted cells) ([8]; C32, 50 µM) [%] | further results |
| --- | --- | --- | --- | --- | --- | --- | --- | --- | --- | --- | --- | --- | --- | --- | --- | --- | --- | --- | --- | --- | --- |
| 129 | 105 | 59.6 | 393 | 166 | 91.2 | 220 | 64.1 | 31.4 | 168 | 79.9 | 24.6 | C=CCN1c2cccnc2Sc2cc(C)cnc21 [B8, 3-metyhl-10-allyl-1,6-diazaphenothiazine] |  | 142 | 125 |  | 22 | 21 | 33 | 20 | cells with fragmented DNA (M1) ([6]; C32, 50 µM): 11%; cells with low GSH levels (Q1ll, GSH-depleted cells) ([8]; C32, 100 µM): 36%; depolarized (early apoptotic) cells (Q1lr) ([9]; G361, 50 µM): 13%; depolarized (early apoptotic) cells (Q1lr) ([9]; G361, 100 µM): 26%; depolarized cells, decreased mitochondrial membrane potential (Q1lr) ([10]; C32, 50 µM): 18%; depolarized cells, decreased mitochondrial membrane potential (Q1lr) ([10]; C32, 100 µM): 25%; viability reduction in comparison to the control ([5]; 75 µM and 100 µM, 48 h and 72 h of incubation): > 20%; cells with fragmented DNA (M1) [11]: 12% |
| 120 | 167 | 66.4 | 698 | 171 | 138 | 136 | 61.5 | 49.5 | 116 | 97 | 57 | C#CCN1c2cccnc2Sc2cc(C)cnc21 [B9, 3-methyl-10-propargyl-1,6-diazaphenothiazine] | 57.4 | 22.2 | 11.3 | > 20 |  |  |  |  |  |
| 95.8 | 87 | 42.7 | 511 | 109 | 60.4 | 178 | 75.5 | 37 | 132 | 100 | 43 | Cc1cnc2c(c1)Sc1ncccc1N2Cc1ccccc1 [B10, 3-methyl-10-benzyl-1,6-diazaphenothiazine] | 1930 | 932 | 656 |  | 10 | 13 | 25 | 12 | cells with low GSH levels (Q1ll, GSH-depleted cells) ([8]; C32, 100 µM): 22%; depolarized (early apoptotic) cells (Q1lr) ([9]; G361, 50 µM): 6%; depolarized (early apoptotic) cells (Q1lr) ([9]; G361, 100 µM): 17%; depolarized cells, decreased mitochondrial membrane potential (Q1lr) ([10]; C32, 50 µM): 15%; depolarized cells, decreased mitochondrial membrane potential (Q1lr) ([10]; C32, 100 µM): 21%; decrease of viability of cells ([5]; at any measurement point (1–100 µM; 24 h, 48 h, 72 h)): ≤ 10%; cells with fragmented DNA (M1) [11]: 10% |

The next lines start with the compound.

| Compound | IC50 ([1]; C32, 24 h exposure) [µM] | IC50 ([1]; C32, 48 h exposure) [µM] | IC50 ([1]; C32, 72 h exposure) [µM] | IC50 ([2]; A375, 24 h exposure) [µM] | IC50 ([2]; A375, 48 h exposure) [µM] | IC50 ([2]; A375, 72 h exposure) [µM] | IC50 ([3]; COLO829, 24 h exposure) [µM] | IC50 ([3]; COLO829, 48 h exposure) [µM] | IC50 ([3]; COLO829, 72 h exposure) [µM] | IC50 ([4]; G361, 24 h exposure) [µM] | IC50 ([4]; G361, 48 h exposure) [µM] | IC50 ([4]; G361, 72 h exposure) [µM] | IC50 ([5]; 24 h exposure) [µM] | IC50 ([5]; 48 h exposure) [µM] | IC50 ([5]; 72 h exposure) [µM] | reduction in cell viability in comparison to the control [5] [%] | cells with fragmented DNA (M1) ([6]; C32, 100 µM) [%] | cells with low GSH levels (Q1ll, GSH-depleted cells) ([7]; G361, 50 µM) [%] | cells with low GSH levels (Q1ll, GSH-depleted cells) ([7]; G361, 100 µM) [%] | cells with low GSH levels (Q1ll, GSH-depleted cells) ([8]; C32, 50 µM) [%] | further results |
| --- | --- | --- | --- | --- | --- | --- | --- | --- | --- | --- | --- | --- | --- | --- | --- | --- | --- | --- | --- | --- | --- |
| Cc1cnc2c(c1)Sc1ncccc1N2 [B6, 10H-3-methyl-1,6-diazaphenothiazine] | 94.3 | 76.1 | 18.1 | 226 | 97.9 | 40 | 262 | 59 | 30.2 | 134 | 56.2 | 22.9 | 83.1 | 40.1 | 31.9 | > 20 |  |  |  |  |  |
| Cc1cnc2c(c1)Sc1ncccc1N2C [B7, 3,10-dimethyl-1,6-diazaphenothiazine] | 91.4 | 89.7 | 22.2 | 235 | 99.5 | 17.6 | 292 | 64.8 | 35.5 | 194 | 75.4 | 41.6 | 55.4 | 31.7 | 30.5 | > 20 |  |  |  |  |  |
| CN(C)/N=N/c1[nH]cnc1C(N)=O [dacarbazine] |  |  |  |  |  |  |  |  |  |  |  |  |  |  |  |  |  |  |  |  | reduction in C32 cell viability (the analyzed parameter) [12]: about 50%; maximum reduction in COLO829 cell viability [13]: about 25% |
